Patent publication US10576102B2, “KOC1-derived peptide and vaccine including same” (ONCOTHERAPY SCIENCE, INC., priority 2014, dated 2020)
“Also recorded” adds a separate entry of the source.

What was measured:
Format in all cases: cell-based, human
peptide-pulsed C1R-A33 [1] = assay: In vitro CTL induction, IFN-gamma ELISPOT assay (HLA-A*3303); details: CTLs induced with peptide-pulsed DCs from HLA-A*3303-positive volunteers, day 21, vs peptide-pulsed C1R-A33, compared with unpulsed control
Method: (§1) C1R (C1R-A33) that stably expresses HLA-A*3303 was used as a stimulator cell. A cDNA encoding the open-reading frame of HLA-A*3303 was amplified by PCR and cloned into an expression vector. C1R cells were transfected with the expression vector, and then selected using G418 (Invitrogen) for two weeks. The G418-selected cells were seeded into wells containing G418-added culture medium in a 96-well plate, and further cultured for 30 days. The exogenous HLA-A*3303 expression in C1R cells was verified by flow cytometric analysis.
(§2) Monocyte-derived dendritic cells (DCs) were used as the antigen-presenting cell to induce a cytotoxic T lymphocyte (CTL) response against peptides presented on human leukocyte antigens (HLAs). As described in the other sections, DCs were generated in vitro (Nakahara S et al., Cancer Res 2003, 63(14): 4112-8). Specifically, peripheral-blood mononuclear cells isolated from healthy volunteers (HLA-A*3303-positive) with the Ficoll-Paque plus solution (Pharmacia) were separated by attaching to plastic tissue culture dishes (Becton Dickinson) and concentrated as a monocyte fraction. The monocyte-concentrated population was cultured in the presence of 1000 IU/ml granulocyte macrophage colony-stimulating factor (R&D System) and 1000 IU/ml interleukin(IL)-4 (R&D System) in an AIM-V medium (Invitrogen) containing 2% heat-inactivated autologous serum (AS). After seven days of culturing, the cytokine-induced DCs were pulsed with 20 micro-g/ml each of the synthesized peptides in an AIM-V medium at 37 degrees C. for three hours in the presence of 3 micro-g/ml beta 2-microglobulin. The generated cells appeared to express on their cell surface DC-associated molecules such as CD80, CD83, CD86 and HLA class II (data not shown). Next, these peptide-pulsed DCs were inactivated by X-ray irradiation (20 Gy), and mixed in a 1:20 ratio with autologous CD8^+ T cells obtained by positive selection using the CD8 Positive Isolation Kit (Dynal). These culture products were seeded in a 48-well plate (Corning). Each well was made to contain 1.5×10^4 peptide-pulsed DCs, 3×10^5 CD8^+ T cells and 10 ng/ml IL-7 (R&D System) in 0.5 ml of the AIM-V/2% AS medium. Three days later, these culture products were added with a final concentration of 20 IU/ml IL-2 (CHIRON). On day 7 and day 14, T cells were further stimulated with peptide-pulsed autologous DCs. The DCs were prepared every time by the same method as above. On day 21, after the third peptide stimulation, CTLs were examined against the peptide-pulsed C1R-A33 cell by a human interferon (IFN)-gamma enzyme-linked immunospot (ELISPOT) assay (Tanaka H et al., Br J Cancer 2001, 84(1): 94-9; Umano Y et. al., Br J Cancer 2001, 84(8): 1052-7; Uchida N et al., Clin Cancer Res 2004, 10(24): 8577-86; Suda T et al., Cancer Sci 2006, 97(5): 411-9; Watanabe T et al., Cancer Sci 2005, 96(8): 498-506).
(§3) Specifically, peptide-pulsed C1R-A33 (1×10^4 cells/well) was prepared as the stimulator cell. The induced CTLs, i.e., CTL lines and CTL clones, were used as the responder cell. The IFN-gamma ELISPOT assay and IFN-gamma ELISA were performed according to the manufacturer's manual.

peptide-pulsed C1R-A01 = assay: In vitro CTL induction, IFN-gamma ELISPOT assay (HLA-A*0101); details: CTLs induced with peptide-pulsed DCs from HLA-A*0101-positive volunteers, day 21, vs peptide-pulsed C1R-A01, compared with unpulsed control
Method: as §1, with “(C1R-A01)” for “(C1R-A33)”, “HLA-A*0101” for “HLA-A*3303”
as §2, with “(HLA-A*0101-positive)” for “(HLA-A*3303-positive)”, “2-microglobulin.” for “2-microglobulin. The generated cells appeared to express on their cell surface DC-associated molecules such as CD80, CD83, CD86 and HLA class II (data not shown).”, “CTL activities” for “CTLs”, “C1R-A01 cells” for “C1R-A33 cell by a human interferon (IFN)-gamma enzyme-linked immunospot (ELISPOT) assay”, “et” for “et.”
Specifically, peptide-pulsed C1R-A01 (1×10^4 cells/well) was prepared as the stimulator cell. The induced CTLs, i.e., CTL lines and CTL clones, were used as the responder cell. The IFN-gamma ELISPOT assay and IFN-gamma ELISA were performed according to the manufacturer's manual.

peptide-pulsed C1R-A33 [2] = assay: IFN-gamma ELISA of CTL lines and CTL clones (HLA-A*3303); details: for IFN-gamma production of CTL clones, ELISA: CTL clones by limiting dilution, peptide-pulsed C1R-A33; for IFN-gamma production of CTL lines, ELISA: target cells pulsed with the peptide vs not pulsed, C1R-A33
Method: CTLs were propagated in culture using methods similar to those disclosed by Riddell et al. (Walter E A et al., N Engl J Med 1995, 333(16): 1038-44; Riddell S R et al., Nat Med 1996, 2(2): 216-23). The CTLs were co-cultured in a total of 25 ml AIM-V medium containing 5% AS (AIM-V/5% AS) and 40 ng/ml anti-CD3 antibody with two types of Mitomycin C-treated human B lymphoblastoid cell lines at 5×10^6 cells/flask. One day after beginning of the culturing, 120 IU/ml IL-2 was added to the culture. On days 5, 8 and 11, a fresh AIM-V/5% AS medium containing 30 IU/ml IL-2 was added to the culture (Tanaka H et al., Br J Cancer 2001, 84(1): 94-9; Umano Y et al., Br J Cancer 2001, 84(8): 1052-7; Uchida N et al., Clin Cancer Res 2004, 10(24): 8577-86; Suda T et al., Cancer Sci 2006, 97(5): 411-9; Watanabe T et al., Cancer Sci 2005, 96(8): 498-506).
Dilution of CTLs was carried out to make 0.3, 1 and 3 cells/well in 96 round-bottomed microtiter plates (Nalge Nunc International). The CTLs were co-cultured with two types of Mitomycin C-treated human B lymphoblastoid cell lines at 1×10^4 cells/well in a total of 150 micro-1/well AIM-V/5% AS medium with 30 ng/ml anti-CD3 antibody and 125 IU/ml IL-2. Ten days later, IL-2 was added to the medium at 50 micro-1/well to reach a final concentration of 125 IU/ml. On day 14, the CTL activity was tested, and the CTL clones were propagated using the same method as described above (Uchida N et al., Clin Cancer Res 2004, 10(24): 8577-86; Suda T et al., Cancer Sci 2006, 97(5): 411-9; Watanabe T et al., Cancer Sci 2005, 96(8): 498-506).
as §3

Row | Sequence | peptide-specific CTL activity (IFN-gamma production), ELISPOT (peptide-pulsed C1R-A33 [1]) | peptide-specific CTL activity (IFN-gamma production), ELISPOT (peptide-pulsed C1R-A01) | also measured
1 | FYACQVAQRK (a peptide derived from KOC1) [SEQ ID NO: 79] | potent IFN-gamma production |  | 
2 | QGQHIKQLSR (a peptide derived from KOC1) [SEQ ID NO: 80] | potent IFN-gamma production |  | 
3 | QSETETVHL (a peptide derived from KOC1) [SEQ ID NO: 92] |  | potent IFN-gamma production | 
4 | SSAEVVVPR (a peptide derived from KOC1) [SEQ ID NO: 4] |  |  | peptide-specific CTL activity (IFN-gamma production), ELISPOT (peptide-pulsed C1R-A33 [1]; listed as KOC1-A33-9-517): no specific IFN-gamma production; also recorded: specific IFN-gamma production was not observed
5 | ELTLYNPER (a peptide derived from KOC1) [SEQ ID NO: 63] | potent IFN-gamma production |  | 
6 | NNFVGRLIGK (a peptide derived from KOC1) [SEQ ID NO: 85] | potent IFN-gamma production |  | 
7 | LVKTGYAFV (a peptide derived from KOC1) [SEQ ID NO: 74] | potent IFN-gamma production |  | 
8 | ISPLQELTLY (a peptide derived from KOC1) [SEQ ID NO: 46] |  | potent IFN-gamma production | 
9 | QSETETVHLF (a peptide derived from KOC1) [SEQ ID NO: 95] |  | potent IFN-gamma production | 
10 | ETETVHLFI (a peptide derived from KOC1) [SEQ ID NO: 90] |  | potent IFN-gamma production | 
11 | FYACQVAQR (a peptide derived from KOC1) [SEQ ID NO: 61] | potent IFN-gamma production |  | IFN-gamma production of CTL clones, ELISA (peptide-pulsed C1R-A33 [2]; listed as KOC1-A33-9-543): Potent IFN-gamma production; IFN-gamma production of CTL lines, ELISA (peptide-pulsed C1R-A33 [2]): potent IFN-gamma production
12 | VVKITGHFY (a peptide derived from KOC1) [SEQ ID NO: 13] |  |  | peptide-specific CTL activity (IFN-gamma production), ELISPOT (peptide-pulsed C1R-A01; listed as KOC1-A01-9-536): no specific IFN-gamma production; also recorded: specific IFN-gamma production was not observed
13 | VVVKITGHFY (a peptide derived from KOC1) [SEQ ID NO: 41] |  | potent IFN-gamma production | 
14 | LAHNNFVGR (a peptide derived from KOC1) [SEQ ID NO: 62] | potent IFN-gamma production |  | IFN-gamma production of CTL clones, ELISA (peptide-pulsed C1R-A33 [2]; listed as KOC1-A33-9-282): Potent IFN-gamma production; IFN-gamma production of CTL lines, ELISA (peptide-pulsed C1R-A33 [2]): potent IFN-gamma production
